Read-outs that look alike come from different tables or passages of the source.
Tests used:
Type in all cases: biochemical
aggrecanase-1 = target: T1, aggrecanase-1 (Homo sapiens, UniProt O75173); assay: Aggrecanase-1 inhibitory action (Particle Assay, GAG release from aggrecan-containing polyacrylamide particles)
T1 sequence (O75173 213-837): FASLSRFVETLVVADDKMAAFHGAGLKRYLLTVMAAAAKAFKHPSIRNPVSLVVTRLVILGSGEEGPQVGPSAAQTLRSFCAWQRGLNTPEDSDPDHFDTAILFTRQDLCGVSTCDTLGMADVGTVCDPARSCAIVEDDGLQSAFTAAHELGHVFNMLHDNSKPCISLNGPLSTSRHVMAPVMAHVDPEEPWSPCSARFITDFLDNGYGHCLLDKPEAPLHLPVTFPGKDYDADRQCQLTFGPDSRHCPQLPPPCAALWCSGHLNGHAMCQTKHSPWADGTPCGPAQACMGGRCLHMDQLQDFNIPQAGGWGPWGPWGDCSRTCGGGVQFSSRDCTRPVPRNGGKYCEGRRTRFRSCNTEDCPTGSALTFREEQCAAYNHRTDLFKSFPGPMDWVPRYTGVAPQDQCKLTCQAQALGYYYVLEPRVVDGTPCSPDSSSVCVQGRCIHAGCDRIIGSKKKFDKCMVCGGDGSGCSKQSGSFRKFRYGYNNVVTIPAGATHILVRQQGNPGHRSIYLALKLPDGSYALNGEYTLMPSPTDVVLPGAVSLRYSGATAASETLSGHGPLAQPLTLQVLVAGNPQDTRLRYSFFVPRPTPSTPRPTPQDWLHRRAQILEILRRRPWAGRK
In short: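 Enzyme and compound incubated with aggrecan-containing polyacrylamide particles in Tris-HCl buffer at 37° C for 15 h. Released GAG in supernatant measured with 1,9-dimethylmethylene blue at 595 nm against chondroitin sulfate standard; % inhibition from enzyme-free and inhibitor-free wells, reported as TC50 (μM).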

MMP-1 = target: T2, MMP-1 (Homo sapiens, UniProt P03956); assay: MMP-1 inhibitory action (Type I collagen Activity Measurement kit, FITC-labeled collagen type I)
T2 sequence (P03956 100-469): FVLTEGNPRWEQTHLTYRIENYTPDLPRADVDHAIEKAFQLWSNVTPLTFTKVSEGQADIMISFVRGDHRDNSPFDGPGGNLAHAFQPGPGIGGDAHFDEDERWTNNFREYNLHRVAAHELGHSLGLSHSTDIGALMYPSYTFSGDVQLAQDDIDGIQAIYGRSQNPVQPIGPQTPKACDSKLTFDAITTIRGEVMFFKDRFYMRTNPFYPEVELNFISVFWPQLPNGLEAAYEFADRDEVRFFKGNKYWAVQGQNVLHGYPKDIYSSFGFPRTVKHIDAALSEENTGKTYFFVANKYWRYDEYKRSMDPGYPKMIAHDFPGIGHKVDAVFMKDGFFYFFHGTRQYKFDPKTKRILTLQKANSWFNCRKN

Recombinant Human MMP-13 = target: T3, Recombinant Human MMP-13 (Homo sapiens, UniProt P45452); assay: MMP-13 inhibitory activity (MMP-13 specific fluorescent substrate with quencher)
T3 construct: purchased R&D systems 511-MM
In short: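 Recombinant human MMP-13 with test compound, reaction started with quenched fluorogenic peptide 7-MCA-Pro-CHA-Gly-NVal-His-Ala-DPA in Tris-HCl buffer, 1 h at 25 °C, stopped with acetic acid. Fluorescence at Ex 325/Em 405 nm; % inhibition versus enzyme-free and inhibitor-free wells, reported as IC50 (μM).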

[1] = aggrecanase-1 inhibitory action, read-out: IC50 AG1 (Experimental Example 1)
[2] = MMP-1 inhibitory action, FITC-labeled collagen type I, 37° C. for 3 hr, read-out: IC50 MMP1 (Experimental Example 2)
[3] = Recombinant Human MMP-13, fluorescent substrate, 25° C. for 1 h, read-out: IC50 MMP13 (Experimental Example 3)
[4] = Experimental Example 1, read-out: IC50 AG1
[5] = Experimental Example 2, read-out: IC50 MMP1
[6] = Experimental Example 3, read-out: IC50 MMP13

| IC50 (aggrecanase-1; [1]) [nM] | IC50 (MMP-1; [2]) [nM] | IC50 (Recombinant Human MMP-13; [3]) [nM] | IC50 (aggrecanase-1; [4]) [nM] | IC50 (MMP-1; [5]) [nM] | IC50 (Recombinant Human MMP-13; [6]) [nM] | SMILES |
| --- | --- | --- | --- | --- | --- | --- |
| < 1000 | ≥ 10000 | < 1000 |  |  |  | O=C(O)C1(NS(=O)(=O)c2ccc(-c3ccc(C(F)(F)F)cc3)s2)CC1c1ccccc1 (stereo not drawn) [Example 2-19] |
| < 100 | ≥ 10000 | < 1000 |  |  |  | CC(C)(CO)NC(=O)c1ccccc1C1CC1(NS(=O)(=O)c1ccc(-c2ccc(Cl)cc2)s1)C(=O)O (stereo not drawn) [Example 2-78] |
|  |  |  | ≥ 1000 | ≥ 1000 | < 1000 | CC1[C@H](c2ccccc2)[C@]1(NS(=O)(=O)N1CCC(Oc2ccc(Cl)cc2)C1)C(=O)O (stereo partly drawn) [Example 2-500] |
|  |  |  | < 1000 | ≥ 1000 | < 100 | CC1[C@H](c2ccccc2)[C@]1(NS(=O)(=O)c1ccc(-n2cccn2)s1)C(=O)O (stereo partly drawn) [Example 2-542] |
|  |  |  | ≥ 1000 | ≥ 10000 | ≥ 1000 | CC1[C@H](c2ccccc2)[C@]1(NS(=O)(=O)c1ccc(-c2cc(C(F)(F)F)on2)s1)C(N)=O (stereo partly drawn) [Example 2-296] |
| ≥ 1000 | ≥ 10000 | ≥ 1000 |  |  |  | O=C(O)C1(NS(=O)(=O)N2CCn3c(cc4cc(Cl)ccc43)C2)CC1c1ccccc1 (stereo not drawn) [Example 2-156] |
| < 100 | ≥ 10000 | < 1000 |  |  |  | O=C(O)CCc1ccccc1C1CC1(NS(=O)(=O)c1ccc(-c2ccc(Cl)cc2)s1)C(=O)O (stereo not drawn) [Example 2-179] |
|  |  |  | < 100 | ≥ 1000 | < 1000 | COCCCC1(c2ccccc2)CC1(NS(=O)(=O)c1ccc(-c2ccc(Cl)cc2)s1)C(=O)O (stereo not drawn) [Example 2-559] |
|  |  |  | < 100 | < 1000 | < 1000 | C[C@]1(c2ccccc2)C[C@@]1(NS(=O)(=O)c1ccc(-c2cc(C(F)F)on2)s1)C(=O)O [Example 2-382] |
|  |  |  | < 100 | ≥ 1000 | < 100 | O=C(O)C1(NS(=O)(=O)c2ccc(-c3ccc(Cl)cc3)s2)CC1c1cccc(NS(=O)(=O)N2CCOCC2)c1 (stereo not drawn) [Example 2-269] |
| ≥ 1000 | < 1000 | < 100 |  |  |  | O=C(O)[C@]1(NS(=O)(=O)c2ccc(-c3cc(-c4ccccc4)on3)s2)C[C@@H]1c1ccccc1 [Example 2-114] |
| < 100 | ≥ 1000 | < 1000 |  |  |  | O=C(O)C1(NS(=O)(=O)c2ccc(-c3cc(C(F)(F)F)on3)s2)CC1c1ccccc1CCCO (stereo not drawn) [Example 2-252] |
|  |  |  | < 100 | < 100 | < 100 | CC1[C@H](c2ccccc2)[C@]1(NS(=O)(=O)c1ccc(-n2cc(I)cn2)s1)C(=O)O (stereo partly drawn) [Example 2-543] |
|  |  |  | ≥ 1000 | ≥ 10000 | < 100 | O=C(O)C1(NS(=O)(=O)c2cn3cc(-c4ccccc4)nc3s2)CC1c1ccccc1 (stereo not drawn) [Example 2-489] |
|  |  |  | ≥ 1000 | ≥ 1000 | ≥ 1000 | CC(C)CC(=O)N1CCN(S(=O)(=O)N[C@@]2(C(=O)O)C[C@@H]2c2ccccc2)CC1 [Example 2-513] |
|  |  |  | ≥ 1000 | ≥ 10000 | < 100 | O=C(O)C1(NS(=O)(=O)c2cn3cc(-c4ccc(Cl)cc4)nc3s2)CC1c1ccccc1 (stereo not drawn) [Example 2-490] |
| < 100 | ≥ 1000 | < 100 |  |  |  | O=C(OCCCc1ccccc1C1CC1(NS(=O)(=O)c1ccc(-c2cc(C(F)(F)F)on2)s1)C(=O)O)N1CCOCC1 (stereo not drawn) [Example 2-253] |
| < 100 | ≥ 10000 | < 1000 |  |  |  | O=C(O)COc1ccccc1C1CC1(NS(=O)(=O)c1ccc(-c2ccc(Cl)cc2)s1)C(=O)O (stereo not drawn) [Example 1-139] |
|  |  |  | < 100 | ≥ 1000 | < 100 | C[C@]1(c2ccccc2)C[C@@]1(NS(=O)(=O)c1ccc(-c2ccc(C(F)(F)F)cc2)s1)C(=O)O [Example 2-572] |
|  |  |  | < 1000 | ≥ 1000 | < 100 | O=C(O)C1(NS(=O)(=O)c2ccc(-c3ccc(Cl)cc3)s2)CC1(CNCc1nccs1)c1ccccc1 (stereo not drawn) [Example 2-393] |

| IC50 (aggrecanase-1; [1]) [nM] | IC50 (MMP-1; [2]) [nM] | IC50 (Recombinant Human MMP-13; [3]) [nM] | IC50 (aggrecanase-1; [4]) [nM] | IC50 (MMP-1; [5]) [nM] | IC50 (Recombinant Human MMP-13; [6]) [nM] | SMILES |
| --- | --- | --- | --- | --- | --- | --- |
|  |  |  | ≥ 1000 | ≥ 10000 | ≥ 1000 | C[C@]1(c2ccccc2)C[C@@]1(NS(=O)(=O)c1ccc(-c2cccc(C(F)(F)CO)c2)s1)C(=O)O [Example 2-606] |
| < 100 | ≥ 1000 | < 100 |  |  |  | CS(=O)(=O)Nc1cccc(C2CC2(NS(=O)(=O)c2ccc(-c3ccc(Cl)cc3)s2)C(=O)O)c1 (stereo not drawn) [Example 1-130] |
| < 100 | ≥ 1000 | < 100 |  |  |  | O=C(OCCCc1ccccc1C1CC1(NS(=O)(=O)c1ccc(-c2cc(C(F)(F)F)on2)s1)C(=O)O)N1CC[C@@H](O)C1 (stereo partly drawn) [Example 2-255] |
|  |  |  | ≥ 1000 | < 1000 | < 100 | CC1[C@H](c2ccccc2)[C@]1(NS(=O)(=O)c1ccc(-n2cc(C(F)(F)F)cn2)cc1)C(=O)O (stereo partly drawn) [Example 2-507] |
| < 100 | ≥ 1000 | < 100 |  |  |  | O=C(O)C1(NS(=O)(=O)c2ccc3c(c2)oc2cc(Cl)ccc23)CC1c1ccccc1 (stereo not drawn) [Example 1-122] |
| < 100 | ≥ 1000 | < 100 |  |  |  | O=C(O)[C@]1(NS(=O)(=O)c2ccc(-c3ccc(Cl)cc3)s2)C[C@@H]1c1ccccc1 [Example 1-85] |
|  |  |  | < 1000 | ≥ 1000 | < 100 | CC1[C@H](c2ccccc2)[C@]1(NS(=O)(=O)N1CCN(c2ccc(Cl)cc2)CC1)C(=O)O (stereo partly drawn) [Example 2-426] |
|  |  |  | < 1000 | ≥ 10000 | < 1000 | CC(C)C(=O)NCC1(c2ccccc2)CC1(NS(=O)(=O)c1ccc(-c2ccc(Cl)cc2)s1)C(=O)O (stereo not drawn) [Example 2-397] |
| ≥ 10000 | ≥ 10000 | ≥ 10000 |  |  |  | O=C(O)C1(NS(=O)(=O)N2CCC(Oc3ccc(Cl)cc3)CC2)CC1c1ccccc1 (stereo not drawn) [Example 2-128] |
|  |  |  | < 100 | < 1000 | < 100 | C[C@]1(c2ccc(Cl)cc2)C[C@@]1(NS(=O)(=O)c1ccc(-c2cc(C(F)(F)F)on2)s1)C(=O)O [Example 2-620] |
|  |  |  | < 100 | < 100 | < 100 | CC1C(c2ccccc2)C1(NS(=O)(=O)c1ccc(-c2cccc(CO)c2)s1)C(=O)O (stereo not drawn) [Example 2-525] |
|  |  |  | < 1000 | ≥ 1000 | < 1000 | C[C@]1(c2ccccc2)C[C@@]1(NS(=O)(=O)c1ccc(-c2ccc(F)c(O)c2)s1)C(=O)O [Example 2-600] |
| ≥ 10000 | ≥ 10000 | ≥ 1000 |  |  |  | O=C(O)C1(NS(=O)(=O)N2CCN(c3nc4ccccc4s3)CC2)CC1c1ccccc1 (stereo not drawn) [Example 2-157] |
| ≥ 1000 | ≥ 10000 | < 100 |  |  |  | O=C(O)C1(NS(=O)(=O)N2CC=C(c3ccc(Cl)cc3)CC2)CC1c1ccccc1 (stereo not drawn) [Example 2-149] |
| < 1000 | ≥ 10000 | < 1000 |  |  |  | O=C(O)C1(NS(=O)(=O)c2ccc(-c3ccc(Cl)cc3)cc2)CC1c1cccc(-c2ccccc2)c1 (stereo not drawn) [Example 1-26] |
| < 1000 | ≥ 10000 | ≥ 1000 |  |  |  | O=C(O)[C@@]1(NS(=O)(=O)c2ccc(-c3ccc(Cl)cc3)s2)C[C@H]1c1ccccc1Br [Example 2-168] |
|  |  |  | < 100 | ≥ 1000 | < 1000 | C[C@]1(c2ccccc2)C[C@@]1(NS(=O)(=O)c1ccc(-c2ccc(F)c(Cl)c2)s1)C(=O)O [Example 2-413] |
|  |  |  | < 100 | < 1000 | < 100 | CC1[C@@H](c2ccccc2)[C@@]1(NS(=O)(=O)c1ccc(-c2cc(C(F)(F)F)on2)s1)C(=O)O (stereo partly drawn) [Example 2-288] |
|  |  |  | < 100 | < 100 | < 100 | CC1(c2ccccc2F)CC1(NS(=O)(=O)c1ccc(-c2cc(C(F)(F)F)on2)s1)C(=O)O (stereo not drawn) [Example 2-615] |
| < 100 | ≥ 1000 | < 100 |  |  |  | COCCN(C)C(=O)c1cccc(C2CC2(NS(=O)(=O)c2ccc(-c3ccc(Cl)cc3)s2)C(=O)O)c1 (stereo not drawn) [Example 2-69] |
